Converted amounts (≈) assume the structure as drawn. Where two headings read alike, the source gives them in different places.
What was measured:
[1] = Solubility determination of amorphous solid dispersions of Compound 1A in water, SIF and SGF at 37° C.; assay type: physicochemical
Description: For the solubility determination, suspensions of Compound 1A and dispersions were prepared in 3 mL aqueous medium. […] Samples were taken after 0.5, 1 and 2 hours, filtered over a PTFE spin filter and the concentration of Enasidenib in solution was determined by HPLC analysis. In the next sections the solubility results are discussed per aqueous media.
The concentration of API in solution was determined by HPLC analysis after 0.5, 1 and 2 hours.

[2] = Amorphous solid dispersion screen for Compound 1A: HT-XRPD after accelerated aging conditions (40° C./70% RH, 4 weeks); assay type: physicochemical; conditions: HT-XRPD form after accelerated aging conditions, 4 weeks at 40° C. and 70% RH
Description: The plates were mounted on a Bruker General Area Detector Diffraction System (GADDS) equipped with a VÅNTEC-500 gas area detector corrected for intensity and geometric variations. The calibration of the measurement accuracy (peaks position) was performed using NIST SRM1976 standard (Corundum).
No background subtraction or curve smoothing was applied to the XRPD patterns.

[3] = Anti-precipitant screening of Compound 1A by solvent shift method in SIF; assay type: physicochemical; conditions: control experiment, crystalline solid, no polymer
Description: The anti-precipitant screen by the solvent shift method was used for discovering polymers that can maintain the supersaturated state of Compound 1A in solution. Based on the results of this screen, polymers were selected for the development of the ASD.
The concentration of free base in solution was determined by HPLC analysis.

[4] = 37° C.
[5] = Quantitative (24-hour shake flask) thermodynamic solubility of Compound 1A in organic solvents and water; assay type: physicochemical; conditions: room temperature
Description: The solubility of Compound 1A was quantitatively assessed in 10 different organic solvents and water. Slurries were prepared by mixing 30 mg of Compound 1A with an appropriate solvent volume. A stirring bean was added and the suspensions were stirring (500 rpm) at room temperature for 24 hours. An aliquot of the suspension was transferred into a spin filter (nylon, 0.2 μm). The solubility of the filtered solution was determined by HPLC.

[6] = Kinetic solubility of Compound 1A in SIF and SGF (DMSO solutions added to medium); assay type: physicochemical; conditions: 80 μL of 60, 30, 15 and 5 mg/mL DMSO solutions added to 4 mL
Description: Prior to the solvent shift experiments, the kinetic solubility of Compound 1A was tested in simulated intestinal fluid (SIF) and simulated gastric fluid (SGF) in order to choose the Compound 1A concentration suitable for the solvent shift experiments. Four different Compound 1A solutions (in DMSO) were prepared with concentrations of 60, 30, 15 and 5 mg/mL. Subsequently, 80 μL of these solutions were added to 4 mL of SGF and to 4 mL of SIF.
For the solvent shift experiments in SIF, Compound 1A concentration in DMSO of 5 mg/mL was used.

physchem = conditions: thermodynamic from solid
[7] = thermodynamic from solid, Water

CC(C)(O)CNc1nc(Nc2ccnc(C(F)(F)F)c2)nc(-c2cccc(C(F)(F)F)n2)n1 [ASD102]
Concentration API ([1]; SGF, 0.5 hours): 20800 ng/mL
Concentration API ([1]; SGF, 1 hour): 13000 ng/mL
Concentration API ([1]; SGF, 2 hours): 10900 ng/mL
Concentration API ([1]; SIF, 0.5 hours): <100 ng/mL
Concentration API ([1]; SIF, 1 hour): <100 ng/mL
Concentration API ([1]; SIF, 2 hours): <100 ng/mL
Concentration API ([1]; Water, 0.5 hours): <100 ng/mL
Concentration API ([1]; Water, 1 hour): <100 ng/mL
Concentration API ([1]; Water, 2 hours): <100 ng/mL
XRPD AAC [2]: Form 1

CC(C)(O)CNc1nc(Nc2ccnc(C(F)(F)F)c2)nc(-c2cccc(C(F)(F)F)n2)n1 [Compound 1A, 2-methyl-1-[(4-[6-(trifluoromethyl)pyridin-2-yl]-6-{[2-(trifluoromethyl)pyridin-4-yl]amino}-1,3,5-triazin-2-yl)amino]propan-2-ol]
Solubility of crystalline Compound 1A in SIF [3]: practically insoluble
Concentration API (μg/mL) 0.5 h ([4]; SGF): 21.9 µg/mL
pH 0.5 h ([4]; SGF): 1.24
Concentration API (μg/mL) 1 h ([4]; SGF): 17.2 µg/mL
Concentration API (μg/mL) 2 h ([4]; SGF): 14.6 µg/mL
pH 2 h ([4]; SGF): 1.23
Concentration API (μg/mL) 0.5 h ([4]; SIF): 0.4 µg/mL
pH 0.5 h ([4]; SIF): 6.60
Concentration API (μg/mL) 1 h ([4]; SIF): <0.1 µg/mL
Concentration API (μg/mL) 2 h ([4]; SIF): <0.1 µg/mL
pH 2 h ([4]; SIF): 6.44
Concentration API (μg/mL) 0.5 h ([4]; Water): 0.7 µg/mL
pH 0.5 h ([4]; Water): 2.64
Concentration API (μg/mL) 1 h ([4]; Water): 0.4 µg/mL
Concentration API (μg/mL) 2 h ([4]; Water): 0.3 µg/mL
pH 2 h ([4]; Water): 2.15
solubility ([5]; Water): practically insoluble
solubility at 24 h ([5]; organic solvent or mixture, thermodynamic from solid, 1,4-Dioxane): 69200 µg/mL (≈ 146 mM)
solubility at 24 h ([5]; organic solvent or mixture, thermodynamic from solid, 2-Propanol): 229000 µg/mL (≈ 484 mM)
solubility at 24 h ([5]; organic solvent or mixture, thermodynamic from solid, Acetone): 209000 µg/mL (≈ 442 mM)
solubility at 24 h ([5]; organic solvent or mixture, thermodynamic from solid, Acetonitrile): 14700 µg/mL (≈ 31.1 mM)
solubility at 24 h ([5]; organic solvent or mixture, thermodynamic from solid, Chloroform): 70600 µg/mL (≈ 149 mM)
solubility at 24 h ([5]; organic solvent or mixture, thermodynamic from solid, Ethanol): > 408000 µg/mL
solubility at 24 h ([5]; organic solvent or mixture, thermodynamic from solid, Ethyl acetate): 127000 µg/mL (≈ 268 mM)
solubility at 24 h ([5]; organic solvent or mixture, thermodynamic from solid, Methanol): > 463000 µg/mL
solubility at 24 h ([5]; organic solvent or mixture, thermodynamic from solid, Tetrahydrofuran): > 429000 µg/mL
solubility at 24 h [5, 7]: < 100 µg/mL
Concentration API ([1]; SGF, 0.5 hours): ~80000 ng/mL
Concentration API ([1]; SGF, 0.5 hours, listed as SM): 75800 ng/mL
Concentration API ([1]; SGF, 1 hour): 41300 ng/mL
Concentration API ([1]; SGF, 2 hours): about 20 μg/mL
Concentration API ([1]; SGF, 2 hours, listed as SM): 19400 ng/mL
Concentration API ([1]; SIF, 0.5 hours): 300 ng/mL
Concentration API ([1]; SIF, 1 hour): <100 ng/mL
Concentration API ([1]; SIF, 2 hours): <100 ng/mL
Concentration API ([1]; Water, 0.5 hours, listed as SM): 1000 ng/mL
Concentration API ([1]; Water, 1 hour): 400 ng/mL
Concentration API ([1]; Water, 2 hours): <100 ng/mL
solubility [1, 7]: ~1 µg/mL (≈ 0.00211 mM)
Kinetic solubility (precipitation) ([6]; SGF): precipitation was observed when using the solution with the highest concentration
Kinetic solubility (precipitation) ([6]; SIF): precipitated using all four concentrations
solubility at 24 h (physchem; 1,4-dioxane, organic solvent or mixture): 400 µg/mL (≈ 0.845 mM)
solubility at 24 h (physchem; 2-propanol, organic solvent or mixture): 1400 µg/mL (≈ 2.96 mM)
solubility at 24 h (physchem; acetone, organic solvent or mixture): 900 µg/mL (≈ 1.9 mM)
solubility at 24 h (physchem; acetonitrile, organic solvent or mixture): 500 µg/mL (≈ 1.06 mM)
solubility at 24 h (physchem; chloroform, organic solvent or mixture): 200 µg/mL (≈ 0.422 mM)
solubility at 24 h (physchem; ethanol, organic solvent or mixture): 7300 µg/mL (≈ 15.4 mM)
solubility at 24 h (physchem; ethyl acetate, organic solvent or mixture): 200 µg/mL (≈ 0.422 mM)
solubility at 24 h (physchem; methanol, organic solvent or mixture): 35600 µg/mL (≈ 75.2 mM)
solubility at 24 h (physchem; tetrahydrofuran, organic solvent or mixture): 1800 µg/mL (≈ 3.8 mM)
solubility at 24 h (physchem; water): < 100 µg/mL

Source: patent publication US20220017489A1, “SOLID DISPERSIONS FOR TREATMENT OF CANCER” (Celgene Corporation, priority 2018, published 2022)
